Measurements: US11028073B2, “Butylphthalide-telmisartan hybrids, preparation method and application thereof” (GUANGDONG LONGFU MEDICINE CO., LTD., priority 2017, dated 2021)

Key:
AMPK = test: Western blot of phosphorylated AMPK (p-AMPK) in cerebral cortex at the infarct side of tMCAO rats; type: in vivo, rat; conditions: Compound C 20 mg/kg i.p. 30 min before I3
Procedure: (§1) The experimental method was manipulated as described in 2. At 30 min before the administration of I3, rats were intraperitoneally injected with 20 mg/kg of AMPK inhibitor Compound C, and the volume of the ipsilateral hemisphere infarct and the neurobehavioral score were determined at 48 h post-ischemia. Western blot analysis was performed on ischemic brain tissue to determine the content of phosphorylated AMPK (p-AMPK) in the cerebral cortex at the infarct side.

rats with tMCAO [1] = test: Neurobehavioral function score in tMCAO rats; type: in vivo, rat
Procedure: (§2) Experimental method: 75 SD male rats weighing 300±20 g were raised under the condition of 25° C. and relative humidity of 60% to 75% for 1 week for experiment. Rats were randomized into 5 groups: sham group, vehicle group, drug administration group at 24 h after ischemia, drug administration group at 6 h after ischemia, drug administration group at 4 h after ischemia, respectively, with 15 animals in each group.
(§3) Establishment of transient middle cerebral artery occlusion (tMCAO) rat model: The rats were anesthetized by intraperitoneal injection of chloral hydrate, and lying on an operating table with limbs fixed with string. […] ECA was ligated and cut off, ICA was clamped at the distal end with an arterial clip, and then a small opening was cut at the intersection of ECA and ICA near the ECA. A nylon thread with paraffin coated on one end was inserted from the small cut opening into the internal carotid artery at the intersection of the internal and external carotid arteries and further into the anterior cerebral artery at the proximal end, to block the blood supply to the middle cerebral artery on this side. At 120 minutes after ischemia, the nylon thread was withdrawn at the incision of the external carotid artery to achieve the reperfusion of the middle cerebral artery. The room temperature during surgery was controlled at 25 to 27° C.
(§4) Administration method: administrating after surgery with a concentration of 1 mg/kg. Drug administration group at 4 h after ischemia was administrated at 4 h after ischemia, and once again after 24 h. Drug administration group at 6 h after ischemia was administrated at 6 h after ischemia, and once again after 24 h. Drug administration group at 24 h after ischemia was administrated once at 24 h after ischemia.
(§5) After the time window for administration of 13 was determined, administration at 4 hour post-ischemia was selected as the subsequent testing time point. 95 SD male rats were randomized into 7 groups: sham group, vehicle group, NBP group, Telm group, NBP+Telm group, 13 group and edaravone group, respectively. The surgical procedure was as described above, NBP (1 mg/kg), Telm (1 mg/kg), NBP (1 mg/kg)+Telm (1 mg/kg), 13 (1 mg/kg) and edaravone (3 mg/kg) were administrated at 4 hour post-ischemia, and once again at 24 h, respectively. The infarct volume and neurobehavioral score were determined at 48 h post-ischemia.
The neurobehavioral function score of tMCAO rats were scored at 48 h after ischemia. Criteria for scoring is as follows: 0 point, no symptoms of nerve damage; 1 point, inability of fully extending forepaw at the healthy side; 2 points, circling to the healthy side; 3 points, tilting toward the healthy side; 4 points, inability of spontaneous walking and losing consciousness.
as §1
(§6) In FIG. 2, tMCAO models are established in male rats of 260 to 280 g (thread embolism is pulled out from the rats after 2 hour ischemia, resulting in reperfusion), 13 compound (1 mg/kg) is intravenously injected at 4 h post-ischemia, and intravenously injected again at 24 h post-ischemia. […]

[2] = system: rats with permanent middle cerebral artery occlusion; test: Rotarod performance test in pMCAO rats; type: in vivo, rat; conditions: in s (unit assumed)
Procedure: (§7) Experimental method: Surgical method was described as the operation method for the above tMCAO. The thread embolism remained in the brain of rats without pulling out, and rotarod performance was tested every day. Brains were taken out at 72 h after ischemia for the determination of infarct volume and neurobehavioral score. The process of the rotarod performance test was as follows: rats were placed on a rotating rod of which the speed was accelerated from 4 rpm up to the maximum speed of 40 rpm within 5 minutes. Rats were trained for 3 to 7 days before model establishment, the rotarod performance was tested at 1, 2 and 3 days after pMCAO, respectively, and the falling time of rats were recorded.
(§8) In FIG. 3, pMCAO model is established on male rats of 260 to 280 g (thread embolism is not pulled out, resulting in permanent ischemia), the administration method is the same as that in FIG. 2, and the infract volume, neurobehavioral scores and rotarod test were determined at 72 h after ischemia, as described above.

[3] = system: rats with permanent middle cerebral artery occlusion; test: Neurobehavioral score in pMCAO rats; type: in vivo, rat; conditions: for Neurobehavioral score: 72 h after ischemia
Procedure: as §7, §8

rats with tMCAO [4] = test: Infarct volume (TTC staining) in rats with transient middle cerebral artery occlusion (tMCAO); type: in vivo, rat
Procedure: as §2, §3, §4, §5
At 48 h post-ischemia, the rats were anesthetized with pentobarbital sodium, decapitated to get brain quickly, olfactory bulb, cerebellum and lower brain stem were removed, and coronal was cut into 6 slices. Then the brain slices were placed in the solution containing 4% TTC and 1 mol/L of K2HPO4, incubated at 37° C. for 30 min in the dark, during which the brain slices were flipped every 7 to 8 min. […] Images were taken after staining, and the infarct volume was calculated using an image analysis software. The percentage of infarct volume is calculated by the following formula: infarct area/total brain cross-sectional area×100%.
as §1, §6

[5] = system: rats with permanent middle cerebral artery occlusion; test: Infarct volume in rats with permanent middle cerebral artery occlusion (pMCAO); type: in vivo, rat; conditions: for Infarction rate (%): 72 h after ischemia
Procedure: as §7, §8

TNF-α = test: LPS-induced TNF-α release in mouse primary microglia (ELISA); type: cell-based; conditions: 1 μM or 5 μM drug pre-administrated 3 h, then 100 ng/mL LPS 5 h; supernatant ELISA
Procedure: The primary microglia were extracted from the brain of mouse and cultured, were pre-administrated with 1 μM or 5 μM drugs for 3 h, and then stimulated with 100 ng/mL lipopolysaccharide (LPS) for 5 h. The supernatant of cell culture was extracted, and the expression level of TNF-α in the supernatant was determined by ELISA method.
(§9) In FIGS. 1A and 1B, mouse primary microglia are pre-incubated with 1 μM or 5 μM of test compounds for 3 hours, then stimulated with LPS for 5 hours, and the protein content of pro-inflammatory factor TNF-α is determined by ELISA method. In FIG. 1C, the activations of the compounds on Nrf2 are tested by Luciferase Reporter Assay.

Nrf2 = test: Neh2-Luciferase reporter assay for Nrf2 activation in BV2 cells; type: cell-based; conditions: for activity of intracellular Nrf2 (luciferase): 24 h incubation, BV2 cells
Procedure: BV2 cells were transfected with Neh2-Luciferase reporter gene plasmid for 6 h, replaced a normal serum-containing medium and cultured for 24 h, then incubated with drug for 24 h, and treated with Reporter Lysis Buffer for 20 min. The Reporter Lysis Buffer was added to a 96-well plate, and the activity of luciferase was measured.
as §9

[6] = tMCAO rats, comparison groups, administrated at 4 h post-ischemia and again at 24 h, 1 mg/kg (edaravone 3 mg/kg), scored 48 h
[7] = administrated at 4 h post-ischemia and again at 24 h, 1 mg/kg (edaravone 3 mg/kg), determined 48 h post-ischemia

SMILES: c1cc(-c2cnn3cc(-c4ccc(OCCN5CCCCC5)cc4)cnc23)ccn1 [Compound C, reference compound]
- AMPK activity (p-AMPK content in cerebral cortex at the infarct side) (AMPK): inhibit the increase of AMPK activity induced by I3

SMILES: CC1=NN(c2ccccc2)C(=O)C1 [Edaravone, reference compound]
- Neurobehavioral score (rats with tMCAO [1]; [6]): 1.556
- Falling time ([2]; Before modeling (baseline)): 292.17
- Falling time ([2]; Day 1 after pMCAO): 56.33
- Falling time ([2]; Day 2 after pMCAO): 64.00
- Falling time ([2]; Day 3 after pMCAO): 74.00
- Neurobehavioral score [3]: 1.7
- Infarction rate (%) (rats with tMCAO [4]; [7]): 6.183%
- Infarction rate (%) [5]: 16.7%

SMILES: CCCCC(OC(C)=O)c1ccccc1C(=O)OCCCCOC(=O)c1ccccc1-c1ccc(Cn2c(CCC)nc3c(C)cc(-c4nc5ccccc5n4C)cc32)cc1 (stereo not shown) [I2, 4-O-{2-[(1-acetoxyl)n-pentyl]benzoyl}butanediol telmisartan ester]
- melting point: 83 °C

SMILES: CCCCC(OC(C)=O)c1ccccc1C(=O)NCCCCCCCCNC(=O)c1ccccc1-c1ccc(Cn2c(CCC)nc3c(C)cc(-c4nc5ccccc5n4C)cc32)cc1 (stereo not shown) [I3, 8-N-{2-[(1-acetoxyl)n-pentyl]benzoyl}octanediamine telmisartan amide]
- neurological function score compared with vehicle group (rats with tMCAO [1]; tMCAO (I/R) rats, administration at each time point): significantly reduced ischemia-induced neurological function score
- Neurobehavioral score (rats with tMCAO [1]; tMCAO rats, 1 mg/kg, administrated after 4 h (time-window groups), scored 48 h after ischemia (0-4 points)): 2.385
- Neurobehavioral score (rats with tMCAO [1]; tMCAO rats, 1 mg/kg, administrated after 6 h, scored 48 h after ischemia (0-4 points)): 1.867
- Neurobehavioral score (rats with tMCAO [1]; tMCAO rats, 1 mg/kg, administrated after 24 h, scored 48 h after ischemia (0-4 points)): 1.182
- neurological function compared with NBP, Telm and NBP+Telm (rats with tMCAO [1]; tMCAO rats, 4 h post-ischemia): more pronounced effect on improving the neurological function
- Neurobehavioral score (rats with tMCAO [1]; tMCAO rats, I3 1 mg/kg i.v. at 4 h after ischemia, with or without Compound C 20 mg/kg i.p. 30 min before, 48 h post-ischemia): 1.182
- Neurobehavioral score (rats with tMCAO [1]; [6]): 1.182
- melting point: 94 to 95 °C
- LPS-induced TNF-α release in mouse primary microglia (TNF-α): significantly inhibit LPS-induced TNF-α release
- Falling time ([2]; Before modeling (baseline)): 279.10
- Falling time ([2]; Day 1 after pMCAO): 68.63
- Falling time ([2]; Day 2 after pMCAO): 94.00
- Falling time ([2]; Day 3 after pMCAO): 125.13
- Neurobehavioral score [3]: 1.6
- neurobehavioral impairment ([3]; in words): improved neurobehavioral impairment
- activity of intracellular Nrf2 (luciferase) (Nrf2; 1 μM): significantly activate the activity of intracellular Nrf2
- activity of intracellular Nrf2 (luciferase) (Nrf2; 10 μM): significantly activate the activity of intracellular Nrf2
- AMPK activity (p-AMPK content in cerebral cortex at the infarct side) (AMPK): increase of AMPK activity
- Infarction rate (%) (rats with tMCAO [4]; 1 mg/kg administrated at 6 h after ischemia and once again after 24 h, determined 48 h post-ischemia): 13.07%
- Infarction rate (%) (rats with tMCAO [4]; 1 mg/kg administrated once at 24 h after ischemia, determined 48 h post-ischemia): 20.72%
- infarct volume compared with NBP group, Telm group and NBP+Telm group (rats with tMCAO [4]; 4 h post-ischemia): more pronounced effect on reducing the infarct volume
- Infarction rate (%) (rats with tMCAO [4]; I3 1 mg/kg i.v. at 4 h after ischemia, with or without Compound C 20 mg/kg i.p. 30 min before, 48 h post-ischemia): 6.655%
- Infarction rate (%) (rats with tMCAO [4]; [7]): 6.655%
- infarct volume compared with vehicle group (rats with tMCAO [4]; administrating at each time point (4 h, 6 h, 24 h)): significantly reduced the infarct volume
- Infarction rate (%) [5]: 12.48%
- infarct volume ([5]; in words): significantly reduced the infarct volume

SMILES: CCCCC(OC(C)=O)c1ccccc1C(=O)OCCCCCOC(=O)c1ccccc1-c1ccc(Cn2c(CCC)nc3c(C)cc(-c4nc5ccccc5n4C)cc32)cc1 (stereo not shown) [I4, 5-O-{2-[(1-acetoxyl)n-pentyl]benzoyl}pentanediol telmisartan ester]
- melting point: 78 to 79 °C

SMILES: CCCCC(OC(C)=O)c1ccccc1C(=O)OCCCCCCOC(=O)c1ccccc1-c1ccc(Cn2c(CCC)nc3c(C)cc(-c4nc5ccccc5n4C)cc32)cc1 (stereo not shown) [I5, 6-O-{2-[(1-acetoxyl)n-pentyl]benzoyl}hexanediol telmisartan ester]
- melting point: 82 to 83 °C

SMILES: CCCCC(OC(C)=O)c1ccccc1C(=O)OCCCCCCCCOC(=O)c1ccccc1-c1ccc(Cn2c(CCC)nc3c(C)cc(-c4nc5ccccc5n4C)cc32)cc1 (stereo not shown) [I6, 8-O-{2-[(1-acetoxyl)n-pentyl]benzoyl}octanediol telmisartan ester]
- melting point: 83 to 84 °C

SMILES: CCCCC(OC(C)=O)c1ccccc1C(=O)NCCCCCCNC(=O)c1ccccc1-c1ccc(Cn2c(CCC)nc3c(C)cc(-c4nc5ccccc5n4C)cc32)cc1 (stereo not shown) [I7, 6-N-{2-[(1-acetoxyl)n-pentyl]benzoyl}hexanediamine telmisartan amide]
- melting point: 96 to 98 °C
- activity of intracellular Nrf2 (luciferase) (Nrf2; 10 μM): significantly activate the activity of intracellular Nrf2

SMILES: CCCCC(OC(C)=O)c1ccccc1C(=O)NCCCCNC(=O)c1ccccc1-c1ccc(Cn2c(CCC)nc3c(C)cc(-c4nc5ccccc5n4C)cc32)cc1 (stereo not shown) [I8, 4-N-{2-[(1-acetoxyl)n-pentyl]benzoyl}butanediamine telmisartan amide]
- melting point: 97 to 99 °C
- activity of intracellular Nrf2 (luciferase) (Nrf2; 10 μM): significantly activate the activity of intracellular Nrf2

SMILES: CCCCc1nc(C)c(C(=O)NCCCCCCCCNC(=O)c2ccccc2C(CCCC)OC(C)=O)n1Cc1ccc(-c2ccccc2-c2nnn[nH]2)cc1 (stereo not shown) [I17]
- melting point: 197 to 199 °C

SMILES: CCCCC1OC(=O)c2ccccc21 (stereo not shown) [NBP, Butylphthalide]
- Neurobehavioral score (rats with tMCAO [1]; [6]): 2.7
- Infarction rate (%) (rats with tMCAO [4]; [7]): 20.99%

SMILES: Cc1c(-c2cnccn2)ssc1=S [Oltipraz, reference compound]
- activation of Nrf2 (Nrf2; concentration not given): significantly promote the activation of Nrf2

SMILES: CCCc1nc2c(C)cc(-c3nc4ccccc4n3C)cc2n1Cc1ccc(-c2ccccc2C(=O)O)cc1 [Telm, Telmisartan]
- Neurobehavioral score (rats with tMCAO [1]; [6]): 1
- Infarction rate (%) (rats with tMCAO [4]; [7]): 11.57%
